The compounds below were run against T1, human liver glycogen phosphorylase a (HLGPa) (Homo sapiens, UniProt P06737) (assay: Human liver glycogen phosphorylase a enzymatic activity assay (coupled, fluorescent resorufin readout, with and without 10 mM glucose)). Settings: human liver glycogen phosphorylase a enzymatic activity assay.
T1 construct: creating a full-length cDNA fused at the 5′ end to codons for methionine-glycine-alanine-histidine; 6xHis tag (leader Met-Gly-Ala-His6-Gly-Gly) (N); made in house; host or cells: E. coli (bacterial expression plasmid pTXK1007LTev)
T1 sequence (P06737 2-847 limits assumed): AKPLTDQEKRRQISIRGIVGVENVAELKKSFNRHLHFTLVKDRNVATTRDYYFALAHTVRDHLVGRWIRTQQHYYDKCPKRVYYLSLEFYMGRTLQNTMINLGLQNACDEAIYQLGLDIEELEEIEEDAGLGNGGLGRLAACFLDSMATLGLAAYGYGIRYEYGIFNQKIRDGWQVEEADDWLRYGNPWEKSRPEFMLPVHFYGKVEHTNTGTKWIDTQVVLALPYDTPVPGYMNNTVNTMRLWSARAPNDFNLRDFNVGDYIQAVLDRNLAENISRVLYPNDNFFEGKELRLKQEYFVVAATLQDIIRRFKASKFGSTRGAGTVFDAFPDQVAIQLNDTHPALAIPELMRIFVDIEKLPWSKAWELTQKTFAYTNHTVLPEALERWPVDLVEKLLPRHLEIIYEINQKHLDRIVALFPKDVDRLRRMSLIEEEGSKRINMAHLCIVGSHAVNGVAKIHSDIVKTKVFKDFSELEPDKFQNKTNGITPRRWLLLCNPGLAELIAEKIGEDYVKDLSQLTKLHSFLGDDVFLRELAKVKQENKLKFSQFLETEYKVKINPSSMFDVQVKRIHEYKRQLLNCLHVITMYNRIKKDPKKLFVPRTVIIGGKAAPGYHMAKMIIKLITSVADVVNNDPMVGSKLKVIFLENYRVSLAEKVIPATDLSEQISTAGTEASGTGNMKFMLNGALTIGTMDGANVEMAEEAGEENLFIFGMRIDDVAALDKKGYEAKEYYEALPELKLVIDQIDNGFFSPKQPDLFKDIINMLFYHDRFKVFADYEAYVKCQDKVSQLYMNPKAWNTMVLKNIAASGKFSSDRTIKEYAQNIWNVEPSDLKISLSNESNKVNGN
Format: biochemical

Question: With `O=C(Nc1cc2ccccc2cc1C(=O)NC(C(=O)O)[C@H]1CC[C@H](C(F)(F)F)CC1)Nc1c(Cl)cc(OC(F)(F)F)cc1Cl` (stereo partly drawn) [Example 466, {[(3-{[({2,6-dichloro-4-[(trifluoromethyl)oxy]phenyl}amino)carbonyl]amino}-2-naphthalenyl)carbonyl]amino}[trans-4-(trifluoromethyl)cyclohexyl]acetic acid] as the compound, how does the IC50 read?
Answer: The IC50 was 13 nM.

Question: Which IC50 does the source give for `O=C(Nc1cc2ccccc2cc1C(=O)NC(C(=O)O)[C@H]1CC[C@@H](C(F)(F)F)CC1)Nc1c(Cl)cc(OC(F)(F)F)cc1Cl` (stereo partly drawn) [Example 467, {[(3-{[({2,6-dichloro-4-[(trifluoromethyl)oxy]phenyl}amino)carbonyl]amino}-2-naphthalenyl)carbonyl]amino}[cis-4-(trifluoromethyl)cyclohexyl]acetic acid] here?
Answer: The IC50 was 35 nM.

Question: For `O=C(Nc1cc2ccccc2cc1C(=O)NC(C(=O)O)C1CCOCC1)Nc1c(Cl)cc(OC(F)(F)F)cc1Cl` (centres unmarked) [Example 468, {[(3-{[({2,6-dichloro-4-[(trifluoromethyl)oxy]phenyl}amino)carbonyl]amino}-2-naphthalenyl)carbonyl]amino}(tetrahydro-2H-pyran-4-yl)acetic acid], which IC50 is on record?
Answer: The IC50 was 15 nM.

Question: `CCCc1cc(C)c(NC(=O)Nc2cc3ccccc3cc2C(=O)N[C@H](C(=O)O)C2CCCCC2)c(C)c1` [Example 470, (2S)-cyclohexyl({[3-({[(2,6-dimethyl-4-propylphenyl)amino]carbonyl}amino)-2-naphthalenyl]carbonyl}amino)ethanoic acid] was tested. Which IC50 did it give?
Answer: The IC50 was 2 nM.

Question: How did the IC50 turn out when `C#CCc1cc(C)c(NC(=O)Nc2cc3ccccc3cc2C(=O)N[C@H](C(=O)O)C2CCCCC2)c(C)c1` [Example 471, (2S)-cyclohexyl[({3-[({[2,6-dimethyl-4-(2-propyn-1-yl)phenyl]amino}carbonyl)amino]-2-naphthalenyl}carbonyl)amino]ethanoic acid] was run?
Answer: The IC50 was 3 nM.

Question: Which IC50 does the source give for `Cc1cc(C)c(NC(=O)Nc2cc(F)ccc2C(=O)N[C@@](C)(C(=O)O)C2CCCCC2)c(C)c1` [Example 472, 2-cyclohexyl-N-{[4-fluoro-2-({[(2,4,6-trimethylphenyl)amino]carbonyl}amino)phenyl]carbonyl}-L-alanine] here?
Answer: The IC50 was 160 nM.

Question: For `CCCOc1cc(C)c(NC(=O)Nc2cc3ccccc3cc2C(=O)N[C@H](C(=O)O)C2CCCCC2)c(C)c1` [Example 473, (2S)-cyclohexyl[({3-[({[2,6-dimethyl-4-(propyloxy)phenyl]amino}carbonyl)amino]-2-naphthalenyl}carbonyl)amino]ethanoic acid], which IC50 is on record?
Answer: Its IC50 is 1 nM.

Question: How did the IC50 turn out when `C[C@](NC(=O)c1ccc(F)cc1NC(=O)Nc1c(Cl)cc(OC(F)(F)F)cc1Cl)(C(=O)O)C1CCCCC1` [Example 474, 2-cyclohexyl-N-[(2-{[({2,6-dichloro-4-[(trifluoromethyl)oxy]phenyl}amino)carbonyl]amino}-4-fluorophenyl)carbonyl]-L-alanine] was run?
Answer: Its IC50 is 145 nM.

Question: `CCc1cc(C)c(NC(=O)Nc2cc(F)ccc2C(=O)N[C@H](C(=O)O)C2CCCCC2)c(C)c1` [Example 475, (2S)-cyclohexyl({[2-({[(4-ethyl-2,6-dimethylphenyl)amino]carbonyl}amino)-4-fluorophenyl]carbonyl}amino)ethanoic acid] was tested. Which IC50 did it give?
Answer: The IC50 was 51 nM.

Question: Which IC50 does the source give for `C=CCc1cc(C)c(NC(=O)Nc2cc(F)ccc2C(=O)N[C@H](C(=O)O)C2CCCCC2)c(C)c1` [Example 476, (2S)-cyclohexyl[({2-[({[2,6-dimethyl-4-(2-propen-1-yl)phenyl]amino}carbonyl)amino]-4-fluorophenyl}carbonyl)amino]ethanoic acid] here?
Answer: The IC50 was 30 nM.

Question: Which IC50 does the source give for `CCCc1cc(C)c(NC(=O)Nc2cc(F)ccc2C(=O)N[C@H](C(=O)O)C2CCCCC2)c(C)c1` [Example 477, (2S)-cyclohexyl({[2-({[(2,6-dimethyl-4-propylphenyl)amino]carbonyl}amino)-4-fluorophenyl]carbonyl}amino)ethanoic acid] here?
Answer: The IC50 was 8 nM.

Question: For `CCCCCc1cc(C)c(NC(=O)Nc2cc(F)ccc2C(=O)N[C@H](C(=O)O)C2CCCCC2)c(C)c1` [Example 478, (2S)-cyclohexyl({[2-({[(2,6-dimethyl-4-pentylphenyl)amino]carbonyl}amino)-4-fluorophenyl]carbonyl}amino)ethanoic acid], which IC50 is on record?
Answer: The IC50 was 3 nM.

Question: How did the IC50 turn out when `CCCc1cc(C)c(NC(=O)Nc2cc(F)ccc2C(=O)N[C@@](C)(C(=O)O)C2CCCCC2)c(C)c1` [Example 479, 2-cyclohexyl-N-{[2-({[(2,6-dimethyl-4-propylphenyl)amino]carbonyl}amino)-4-fluorophenyl]carbonyl}-L-alanine] was run?
Answer: The IC50 was 4 nM.

Question: Which IC50 does the source give for `CCCCc1cc(C)c(NC(=O)Nc2cc(F)ccc2C(=O)N[C@H](C(=O)O)C2CCCCC2)c(C)c1` [Example 480, (2S)-({[2-({[(4-butyl-2,6-dimethylphenyl)amino]carbonyl}amino)-4-fluorophenyl]carbonyl}amino)(cyclohexyl)ethanoic acid] here?
Answer: Its IC50 is 20 nM.

Question: For `CCCc1cc(C)c(NC(=O)Nc2cc(-c3ccc(F)c(F)c3)ccc2C(=O)N[C@H](C(=O)O)[C@@H](C)OC(C)(C)C)c(C)c1` [Example 481, O-(1,1-dimethylethyl)-N-{[3-({[(2,6-dimethyl-4-propylphenyl)amino]carbonyl}amino)-3′,4′-difluoro-4-biphenylyl]carbonyl}-L-threonine], which IC50 is on record?
Answer: Its IC50 is 0.4 nM.

Question: How did the IC50 turn out when `Cc1cc(CC2CC2)cc(C)c1NC(=O)Nc1cc(F)ccc1C(=O)N[C@H](C(=O)O)C1CCCCC1` [Example 482, (2S)-cyclohexyl[({2-[({[4-(cyclopropylmethyl)-2,6-dimethylphenyl]amino}carbonyl)amino]-4-fluorophenyl}carbonyl)amino]ethanoic acid] was run?
Answer: Its IC50 is 5 nM.

Question: For `Cc1cc(CC2CC2)cc(C)c1NC(=O)Nc1cc(-c2ccc(F)c(F)c2)ccc1C(=O)N[C@H](C(=O)O)[C@@H](C)OC(C)(C)C` [Example 483, N-({3-[({[4-(cyclopropylmethyl)-2,6-dimethylphenyl]amino}carbonyl)amino]-3′,4′-difluoro-4-biphenylyl}carbonyl)-O-(1,1-dimethylethyl)-L-threonine], which IC50 is on record?
Answer: The IC50 was 1 nM.

Question: Which IC50 does the source give for `COc1ccc(-c2nc(NC(=O)Nc3c(Cl)cc(Cl)cc3Cl)c(C(=O)N[C@H](C(=O)O)C3CCCCC3)s2)cc1` [Example 484, (2S)-Cyclohexyl({[2-[4-(methyloxy)phenyl]-4-({[(2,4,6-trichlorophenyl)amino]carbonyl}amino)-1,3-thiazol-5-yl]carbonyl}amino)ethanoic acid] here?
Answer: Its IC50 is 5000 nM.

Question: For `COc1ccc(-c2nc(C(=O)N[C@H](C(=O)O)C3CCCCC3)c(NC(=O)Nc3c(C)cccc3C(C)C)s2)cc1` [Example 486], which IC50 is on record?
Answer: Its IC50 is 1780 nM.

Question: Which IC50 does the source give for `COc1ccc(-c2nc(C(=O)N[C@H](C(=O)O)C3CCCCC3)c(NC(=O)Nc3c(Cl)cccc3Cl)s2)cc1` [Example 487, (2S)-Cyclohexyl[({5-({[(2,6-dichlorophenyl)amino]carbonyl}amino)-2-[4-(methyloxy)phenyl]-1,3-thiazol-4-yl}carbonyl)amino]ethanoic acid] here?
Answer: Its IC50 is 740 nM.

Question: `COc1ccc(-c2nc(C(=O)O)c(NC(=O)Nc3c(C)cc(C)cc3C)s2)cc1` [Example 488, 2-[4-(Methyloxy)phenyl]-5-({[(2,4,6-trimethylphenyl)amino]carbonyl}amino)-1,3-thiazole-4-carboxylic acid] was tested. Which IC50 did it give?
Answer: The IC50 was 8230 nM.

Question: Which IC50 does the source give for `COc1ccc(-c2nc(C(=O)NC3(C(=O)O)CCCCC3)c(NC(=O)Nc3c(C)cc(C)cc3C)s2)cc1` [Example 489, 1-({[2-[4-(Methyloxy)phenyl]-5-({[(2,4,6-trimethylphenyl)amino]carbonyl}amino)-1,3-thiazol-4-yl]carbonyl}amino)cyclohexanecarboxylic acid] here?
Answer: Its IC50 is 34 nM.

Question: With `O=C(Nc1sc(-c2ccc(Cl)cc2)nc1C(=O)N[C@H](C(=O)O)C1CCCCC1)Nc1c(Cl)cc(Cl)cc1Cl` [Example 490, (2S)-({[2-(4-Chlorophenyl)-5-({[(2,4,6-trichlorophenyl)amino]carbonyl}amino)-1,3-thiazol-4-yl]carbonyl}amino)(cyclohexyl)ethanoic acid] as the compound, how does the IC50 read?
Answer: Its IC50 is 170 nM.

Question: With `Cc1cccc(C)c1NC(=O)Nc1cc2ccccc2cc1C(=O)N(C)CC(=O)O` [Example 491, N-{[3-({[(2,6-dimethylphenyl)amino]carbonyl}amino)-2-naphthalenyl]carbonyl}-N-methylglycine] as the compound, how does the IC50 read?
Answer: The IC50 was 2110 nM.

Question: With `Cc1cccc(C)c1NC(=O)Nc1cc2ccccc2cc1C(=O)NCCCC(=O)O` [Example 492, 4-({[3-({[(2,6-dimethylphenyl)amino]carbonyl}amino)-2-naphthalenyl]carbonyl}amino)butanoic acid] as the compound, how does the IC50 read?
Answer: The IC50 was 7520 nM.

Question: `COC(=O)CCNC(=O)c1cc2ccccc2cc1NC(=O)Nc1c(C)cc(C)cc1C` [Example 493, methyl N-{[3-({[(2,4,6-trimethylphenyl)amino]carbonyl}amino)-2-naphthalenyl]carbonyl}-beta-alaninate] was tested. Which IC50 did it give?
Answer: Its IC50 is 9860 nM.

From patent US20070249670A1, “Glycogen Phosphorylase Inhibitor Compounds and Pharmaceutical Compositions Thereof” (SMITHKLINE BEECHAM CORPORATION, priority 2004, published 2007)
